Test results published in PubChem BioAssay (NCI).
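These data come from cells grown in 96-well plates and exposed to compound for 48 hours at five concentrations. TGI denotes the concentration required for complete inhibition of growth.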

Key:
Test in all cases: NCI anticancer screen, dose series, 48 h
T-47D breast = system: T-47D breast
IGROV1 ovarian = system: IGROV1 ovarian
MDA-MB-231 breast = system: MDA-MB-231 breast
MDA-MB-435 = system: MDA-MB-435
SNB-19 CNS = system: SNB-19 CNS
SF-539 CNS = system: SF-539 CNS
CAKI-1 renal = system: CAKI-1 renal
SK-MEL-2 melanoma = system: SK-MEL-2 melanoma
NCI-H226 lung = system: NCI-H226 lung
HOP-62 NSCLC = system: HOP-62 NSCLC
TK-10 renal = system: TK-10 renal
DU-145 prostate = system: DU-145 prostate
SF-295 CNS = system: SF-295 CNS
MOLT-4 leukemia = system: MOLT-4 leukemia
SR leukemia = system: SR leukemia
HCT-15 colon = system: HCT-15 colon
MALME-3M melanoma = system: MALME-3M melanoma
A498 renal = system: A498 renal
SN12C renal = system: SN12C renal
A549 NSCLC = system: A549 NSCLC
SW-620 colon = system: SW-620 colon
LOX IMVI melanoma = system: LOX IMVI melanoma
HOP-92 NSCLC = system: HOP-92 NSCLC
ACHN renal = system: ACHN renal
SK-MEL-5 melanoma = system: SK-MEL-5 melanoma
U251 CNS = system: U251 CNS
NCI-H23 lung = system: NCI-H23 lung
786-0 renal = system: 786-0 renal
HCT-116 colon = system: HCT-116 colon
NCI-H460 lung = system: NCI-H460 lung
PC-3 prostate = system: PC-3 prostate
HS 578T breast = system: HS 578T breast
K-562 leukemia = system: K-562 leukemia
OVCAR-5 ovarian = system: OVCAR-5 ovarian
CCRF-CEM leukemia = system: CCRF-CEM leukemia
HCC-2998 colon = system: HCC-2998 colon
SF-268 CNS = system: SF-268 CNS
OVCAR-3 ovarian = system: OVCAR-3 ovarian
EKVX NSCLC = system: EKVX NSCLC
MDA-N = system: MDA-N
M14 melanoma = system: M14 melanoma
UACC-257 melanoma = system: UACC-257 melanoma
UACC-62 melanoma = system: UACC-62 melanoma
HT29 colon = system: HT29 colon
RXF 393 renal = system: RXF 393 renal
MCF7 breast = system: MCF7 breast
NCI-H522 lung = system: NCI-H522 lung
SK-MEL-28 melanoma = system: SK-MEL-28 melanoma
COLO 205 colon = system: COLO 205 colon
SK-OV-3 ovarian = system: SK-OV-3 ovarian
BT-549 breast = system: BT-549 breast
RPMI-8226 leukemia = system: RPMI-8226 leukemia
UO-31 renal = system: UO-31 renal
HL-60(TB) leukemia = system: HL-60(TB) leukemia
OVCAR-4 ovarian = system: OVCAR-4 ovarian
KM12 colon = system: KM12 colon
OVCAR-8 ovarian = system: OVCAR-8 ovarian
NCI/ADR-RES ovarian = system: NCI/ADR-RES ovarian

Compound `CN1N(c2ccccc2)C(=O)C2=NC=C(C(=O)c3ccccc3)C(=N)C21C` (stereo unspecified) has a TGI (T-47D breast) greater than 100 µM, a TGI (IGROV1 ovarian) greater than 100 µM and a TGI (MDA-MB-231 breast) greater than 100 µM. The TGI (MDA-MB-435) was greater than 100 µM, the TGI (SNB-19 CNS) was greater than 100 µM and the TGI (SF-539 CNS) was greater than 100 µM. For the same compound, the TGI (CAKI-1 renal) was greater than 100 µM, the TGI (SK-MEL-2 melanoma) was greater than 100 µM and the TGI (NCI-H226 lung) was greater than 100 µM. For the same compound, the TGI (HOP-62 NSCLC) was greater than 100 µM, the TGI (TK-10 renal) was greater than 100 µM and the TGI (DU-145 prostate) was greater than 100 µM. It also gave a TGI (SF-295 CNS) greater than 100 µM, a TGI (MOLT-4 leukemia) greater than 100 µM and a TGI (SR leukemia) greater than 100 µM. It also gave a TGI (HCT-15 colon) greater than 100 µM, a TGI (MALME-3M melanoma) greater than 100 µM and a TGI (A498 renal) greater than 100 µM. The TGI (SN12C renal) was greater than 100 µM, the TGI (A549 NSCLC) was greater than 100 µM and the TGI (SW-620 colon) was greater than 100 µM. It also gave a TGI (LOX IMVI melanoma) greater than 100 µM, a TGI (HOP-92 NSCLC) greater than 100 µM and a TGI (ACHN renal) greater than 100 µM. For the same compound, the TGI (SK-MEL-5 melanoma) was greater than 100 µM, the TGI (U251 CNS) was greater than 100 µM and the TGI (NCI-H23 lung) was greater than 100 µM. The TGI (786-0 renal) was greater than 100 µM, the TGI (HCT-116 colon) was greater than 100 µM and the TGI (NCI-H460 lung) was greater than 100 µM. The TGI (PC-3 prostate) was greater than 100 µM, the TGI (HS 578T breast) was greater than 100 µM and the TGI (K-562 leukemia) was greater than 100 µM. The TGI (OVCAR-5 ovarian) was greater than 100 µM, the TGI (CCRF-CEM leukemia) was greater than 100 µM and the TGI (HCC-2998 colon) was greater than 100 µM. It also gave a TGI (SF-268 CNS) greater than 100 µM, a TGI (OVCAR-3 ovarian) greater than 100 µM and a TGI (EKVX NSCLC) greater than 100 µM. The TGI (MDA-N) was greater than 100 µM, the TGI (M14 melanoma) was greater than 100 µM and the TGI (UACC-257 melanoma) was greater than 100 µM. It also gave a TGI (UACC-62 melanoma) greater than 100 µM, a TGI (HT29 colon) greater than 100 µM and a TGI (RXF 393 renal) greater than 100 µM. It also gave a TGI (MCF7 breast) greater than 100 µM, a TGI (NCI-H522 lung) greater than 100 µM and a TGI (SK-MEL-28 melanoma) greater than 100 µM. The TGI (COLO 205 colon) was greater than 100 µM, the TGI (SK-OV-3 ovarian) was greater than 100 µM and the TGI (BT-549 breast) was greater than 100 µM. It also gave a TGI (RPMI-8226 leukemia) greater than 100 µM, a TGI (UO-31 renal) greater than 100 µM and a TGI (HL-60(TB) leukemia) greater than 100 µM. For the same compound, the TGI (OVCAR-4 ovarian) was greater than 100 µM.

`CCOC(=O)CCC(C(=O)OCC)n1nc2ccc(Nc3c(C)[n+]([O-])c4ccc(Cl)cc4[n+]3[O-])cc2n1` (stereo unspecified) gave a TGI (T-47D breast) of 55.2 µM, a TGI (IGROV1 ovarian) greater than 100 µM and a TGI (MDA-MB-435) greater than 100 µM. It also gave a TGI (SNB-19 CNS) of 95.9 µM, a TGI (SF-539 CNS) of 43.9 µM and a TGI (CAKI-1 renal) greater than 100 µM. For the same compound, the TGI (SK-MEL-2 melanoma) was 61 µM, the TGI (NCI-H226 lung) was 51.5 µM and the TGI (HOP-62 NSCLC) was 40.4 µM. It also gave a TGI (TK-10 renal) greater than 100 µM, a TGI (DU-145 prostate) of 60.9 µM and a TGI (SF-295 CNS) of 39.1 µM. It also gave a TGI (MOLT-4 leukemia) greater than 100 µM, a TGI (SR leukemia) greater than 100 µM and a TGI (HCT-15 colon) greater than 100 µM. It also gave a TGI (MALME-3M melanoma) greater than 100 µM, a TGI (A498 renal) of 56.3 µM and a TGI (SN12C renal) of 48.4 µM. For the same compound, the TGI (A549 NSCLC) was 45.8 µM, the TGI (SW-620 colon) was greater than 100 µM and the TGI (LOX IMVI melanoma) was 30 µM. It also gave a TGI (HOP-92 NSCLC) of 71.4 µM, a TGI (ACHN renal) of 31.9 µM and a TGI (SK-MEL-5 melanoma) of 76.2 µM. For the same compound, the TGI (KM12 colon) was greater than 100 µM, the TGI (U251 CNS) was 39.1 µM and the TGI (NCI-H23 lung) was 53.4 µM. The TGI (786-0 renal) was 33.8 µM, the TGI (HCT-116 colon) was 57.7 µM and the TGI (NCI-H460 lung) was 33.6 µM. For the same compound, the TGI (PC-3 prostate) was greater than 100 µM, the TGI (OVCAR-8 ovarian) was 65.7 µM and the TGI (HS 578T breast) was 58.3 µM. It also gave a TGI (K-562 leukemia) greater than 100 µM, a TGI (OVCAR-5 ovarian) greater than 100 µM and a TGI (CCRF-CEM leukemia) greater than 100 µM. For the same compound, the TGI (HCC-2998 colon) was 28 µM, the TGI (SF-268 CNS) was 36.3 µM and the TGI (OVCAR-3 ovarian) was greater than 100 µM. The TGI (NCI/ADR-RES ovarian) was 48 µM, the TGI (EKVX NSCLC) was 41.1 µM and the TGI (MDA-N) was greater than 100 µM. For the same compound, the TGI (M14 melanoma) was greater than 100 µM, the TGI (UACC-257 melanoma) was 70.8 µM and the TGI (UACC-62 melanoma) was greater than 100 µM. It also gave a TGI (HT29 colon) greater than 100 µM, a TGI (RXF 393 renal) of 27.3 µM and a TGI (MCF7 breast) of 65.8 µM. It also gave a TGI (NCI-H522 lung) greater than 100 µM, a TGI (COLO 205 colon) greater than 100 µM and a TGI (SK-OV-3 ovarian) of 46.8 µM. The TGI (BT-549 breast) was greater than 100 µM, the TGI (RPMI-8226 leukemia) was greater than 100 µM and the TGI (UO-31 renal) was 35.6 µM. It also gave a TGI (HL-60(TB) leukemia) greater than 100 µM and a TGI (OVCAR-4 ovarian) greater than 100 µM.
